Results on four molecules are retold here after patent US20230242947A1, “GENETICALLY ENGINEERED RHODOPSEUDOMONAS PALUSTRIS” (priority 2021, published 2023).

Like-named read-outs stand apart in the source and are kept apart here.

Data set [1] deals with WT TIE-1 with an empty vector (pRhokS-2). The format is cell-based, Rhodopseudomonas palustris TIE-1. The following applies: for Doubling time: WT with pAB423; for effect on TIE-1 growth of the amount produced in the study: amounts produced by the engineered strains (n-butanol up to 4.98 mg/L; acetone up to about 290 mg/L). The protocol:
Toxicity Study. WT TIE-1 with an empty vector (pRhokS-2) was used to test the tolerance of TIE-1 for acetone and n-butanol. To test the tolerance, 0, 0.25, 0.5, 1, or 2% n-butanol (v/v), or 0, 0.1, 0.25, 0.5, 1, or 2% acetone (v/v), was added to FW media with acetate (10 mM). Growth was monitored by recording OD660 overtime.

Data set [2] relates to phiC31 integrase (Streptomyces phage phiC31?). Description: cell_activity.

With `CC(C)=O` [acetone], the Doubling time in data set [1] (acetone 1960 mg/L in media) is 6.74 h; in data set [1] (acetone 3920 mg/L in media) it was 5.82 h; in data set [1] (acetone 7840 mg/L in media) it was 5.56 h; in data set [1] (acetone 15680 mg/L in media), 4.88 h. Besides, the “effect on TIE-1 growth of the amount produced in the study” value in data set [1] was “does not limit TIE-1's growth”.
In the case of `CCCCO` [n-butanol], the Doubling time is 20.091 h in data set [1] (n-butanol 2025 mg/L in media), “No growth” in data set [1] (n-butanol 4050 mg/L in media), “No growth” in data set [1] (n-butanol 8100 mg/L in media) and “No growth” in data set [1] (n-butanol 16200 mg/L in media). Besides, the “effect on TIE-1 growth of the amount produced in the study” value in data set [1] is “does not limit the growth of TIE-1”. Besides, the “lowest inhibitory concentration of n-butanol for TIE-1” value in data set [1] (toxicity assay, FW media with acetate (10 mM)) is 4050 mg/L.
As for “phiC31 attB site (in TIE-1 genome at glmUSX-recG locus)”, the activity in data set [2] (attB x attP integration of mcherry in R. palustris TIE-1, editing efficiency 100% for genome-based system and constitutive plasmid system, about 80% for …) came out at 100%.
In data set [2] (attP donor plasmid partner of attB, same integration assay, about 80% with inducible plasmid system), “phiC31 attP site (on suicide plasmid pWB081/pWB088)” returned an activity of 100%.
